Patent publication US7763580B2, “Methods for treating conditions associated with the accumulation of excess extracellular matrix” (University of Utah Research Foundation, priority 1999, dated 2010)

Tests used:
[1] = test system: anti-Thy 1 glomerulonephritis; assay: Immunofluorescent staining of glomerular fibronectin EDA+ and collagen I; assay type: in vivo, Sprague Dawley rats; details: enalapril alone
Description: These experiments were performed on male Sprague Dawley rats (200-250 g) obtained from the Sasco colony of Charles River Laboratories (Wilmington, Mass., USA). Animal housing and care were in accordance with the NIH Guide for the Care and Use of Laboratory Animals, NIH Publication No. 85-23, 1985. Animals were fed a normal protein diet (22% protein, Teklad No. 86 550, Teklad Premier Laboratory Diets, Madison, Wis., USA). Glomerulonephritis was induced by tail vein injection of 2.25 mg/Kg of the monoclonal anti-Thy 1.1 antibody OX-7 (NCCC, Biovest International Inc, Minneapolis, Minn., USA). OX-7 binds to a Thy 1-like epitope on the surface of mesangial cells causing complement-dependent cell lysis followed by fibrotic tissue repair (Bagchus et al., Lab Invest. 55:680-687 (1986)). Control animals were injected with similar volumes of phosphate-buffered saline (PBS). […] The intensity of glomerular staining of collagen I and fibronectin was evaluated according to a 0 to 4 scale, which has been described in detail previously (Yamamoto et al., Kidney Int. 49:461-469 (1996)). The number of cells per glomerulus, staining positive for the monocyte/macrophage marker ED1, were counted. Thirty glomeruli per sample were evaluated. The mean values with standard error values were calculated. […] The percent reduction in disease severity in a treated group was calculated as: […]

[2] = test system: anti-Thy 1 glomerulonephritis; assay: Glomerular production of fibronectin, PAI-1 and TGF-β1 (ELISA of cultured glomeruli); assay type: in vivo, Sprague Dawley rats; details: enalapril alone
Description: Animal housing and care were in accordance with the NIH Guide for the Care and Use of Laboratory Animals, NIH Publication No. 85-23, 1985. Animals were fed a normal protein diet (22% protein, Teklad No. 86 550, Teklad Premier Laboratory Diets, Madison, Wis., USA). Glomerulonephritis was induced by tail vein injection of 2.25 mg/Kg of the monoclonal anti-Thy 1.1 antibody OX-7 (NCCC, Biovest International Inc, Minneapolis, Minn., USA). OX-7 binds to a Thy 1-like epitope on the surface of mesangial cells causing complement-dependent cell lysis followed by fibrotic tissue repair (Bagchus et al., Lab Invest. 55:680-687 (1986)). Control animals were injected with similar volumes of phosphate-buffered saline (PBS). Groups of 8 rats were assigned and treated as outlined in Table 2. Doses of enalapril above […] in drinking water are maximally effective in this model (Peters et al., Kidney Int. 54:1570-1580 (1998)). […] Fibronectin and PAI-1 synthesis were measured with modified ELISA assays according to published methods ([…] al., Anal Biochem 104:205-214 (1980)). TGF-β1 production of cultured glomeruli was measured after acid-activation using a commercially available ELISA kit (DuoSet®, R&D Systems, Minneapolis, Minn., USA) according to the manufacturer's instructions. Three samples from each rat were analyzed. […] The percent reduction in disease severity in a treated group was calculated as: […]

In the case of `CCOC(=O)[C@H](CCc1ccccc1)N[C@@H](C)C(=O)N1CCC[C@H]1C(=O)O` [enalapril], the “reduction of collagen I immunostaining” value [1] is reported as 33%, the “reduction of fibronectin immunostaining” value [1] is reported as 36% and the “reduction of fibronectin production” value [2] is reported as 53%.
